Data from patent US9512107B2, “Therapeutically active compositions and their methods of use” (Agios Pharmaceuticals, Inc., priority 2012, dated 2016).
Residue numbers refer to the chain shown, from its start.

Assays:
IDH2 R172K = biological target: T1, IDH2 R172K (Homo sapiens, UniProt P48735, R172K); assay: IDH2 R172K enzymatic assay (NADPH cofactor depletion, diaphorase/resazurin readout); type: biochemical; details: read-out: Enz R172K
T1 sequence (P48735 40-452 R172K): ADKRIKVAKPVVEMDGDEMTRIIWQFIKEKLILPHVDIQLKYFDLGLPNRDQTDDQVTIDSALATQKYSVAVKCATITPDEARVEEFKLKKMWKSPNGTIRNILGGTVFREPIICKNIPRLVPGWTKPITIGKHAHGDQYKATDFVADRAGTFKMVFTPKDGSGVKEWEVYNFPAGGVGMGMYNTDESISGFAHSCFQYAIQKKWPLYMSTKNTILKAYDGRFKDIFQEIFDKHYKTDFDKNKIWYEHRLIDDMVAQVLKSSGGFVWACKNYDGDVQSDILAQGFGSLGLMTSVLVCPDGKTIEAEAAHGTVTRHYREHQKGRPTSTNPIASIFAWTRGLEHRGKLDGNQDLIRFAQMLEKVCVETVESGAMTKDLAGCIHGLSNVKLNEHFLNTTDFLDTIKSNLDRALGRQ
Protocol: Compounds are assayed for IDH2 R172K inhibitory activity through a cofactor depletion assay. […] The reaction is terminated by the addition of a second enzyme, diaphorase, and a corresponding substrate, resazurin. Diaphorase reduces resazurin to the highly fluorescent resorufin with the concomitant oxidation of NADPH to NADP, both halting the IDH2 reaction by depleting the available cofactor pool and facilitating quantitation of the amount of cofactor remaining after a specific time period through quantitative production of an easily detected fluorophore.
The test compound is then incubated for one hour at room temperature with the enzyme; before starting the IDH2 reaction with the addition of 10 μl of substrate mix containing 50 μM NADPH and 6.3 mM α-KG in the buffer described above. After a further one hour of incubation at room temperature, the reaction is halted and the remaining NADPH measured through conversion of resazurin to resorufin by the addition of 25 μl Stop Mix (36 μg/ml diaphorase enzyme and 60 μM resazurin; in buffer).

IDH2 R140Q = biological target: T2, IDH2 R140Q (Homo sapiens, UniProt P48735, R140Q); assay: IDH2 R140Q enzymatic assay (cofactor depletion, similar format); type: biochemical; details: read-out: Enz R140Q
T2 sequence (P48735 40-452 R140Q): T1 sequence (P48735 40-452 R172K) with R101Q, K133R

[1] = test system: U87MG pLVX-IDH2 R140Q-neo cells; assay: U87MG pLVX-IDH2 R140Q-neo cell based assay, 2-HG in media by LC-MS at 48 hours; details: for IC50: Homo sapiens, U-87 MG
Method in brief: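 U87MG cells stably expressing IDH2 R140Q were seeded overnight, then exposed to compound at 0.2% final DMSO at 37 °C, 5% CO2. 2-HG in the medium was quantified by LC-MS at 48 h. Growth inhibition was read by CellTiter-Glo luminescence at 72 h.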

Row | SMILES | IC50 (IDH2 R172K) [nM] | IC50 (IDH2 R140Q) [nM] | IC50 [1] [nM] | Cell R140Q [1]
1 | CC(C)Nc1nc(Nc2ccccc2)nc(-c2ccn[nH]2)n1 [Compound 148] | 1000 to 10000 | 100 to 1000 | 100 to 1000 | 
2 | CC(C)Nc1nc(Nc2cccc(CO)c2)nc(-c2ccccc2)n1 [Compound 150] | 1000 to 10000 | 100 to 1000 | 100 to 1000 | 
3 | CC(C)Nc1nc(Nc2cccnc2)nc(-c2ccccc2)n1 [Compound 154] | 1000 to 10000 | < 100 | 100 to 1000 | 
4 | CC(C)Nc1nc(Nc2ccccn2)nc(-c2ccccc2)n1 [Compound 155] | > 10000 | 100 to 1000 |  | No Fit
5 | CC(C)Nc1nc(Nc2ccccc2)nc(-c2ccncc2)n1 [Compound 156] | 1000 to 10000 | 100 to 1000 | 100 to 1000 | 
6 | COc1ccc(Nc2nc(NC(C)C)nc(-c3ccccc3)n2)cc1 [Compound 159] | 1000 to 10000 | 100 to 1000 | 100 to 1000 | 
7 | CC(C)Nc1nc(Nc2ccccc2Cl)nc(-c2ccccc2)n1 [Compound 162] | 1000 to 10000 | 100 to 1000 | 1000 to 10000 | 
8 | c1ccc(Nc2nc(NC3COC3)nc(-c3ccccc3)n2)cc1 [Compound 175, N^2-(oxetan-3-yl)-N^4,6-diphenyl-1,3,5-triazine-2,4-diamine] | 100 to 1000 | < 100 | < 100 | 
9 | CC1(Nc2nc(Nc3ccccc3)nc(-c3ccccc3)n2)COC1 [Compound 176, N^2-(3-methyloxetan-3-yl)-N^4,6-diphenyl-1,3,5-triazine-2,4-diamine] | 100 to 1000 | < 100 | 100 to 1000 | 
10 | CC(C)Nc1nc(Nc2cccc(S(=O)(=O)N(C)C)c2)nc(-c2ccccc2)n1 [Compound 177, 3-(4-(isopropylamino)-6-phenyl-1,3,5-triazin-2-ylamino)-N,N-dimethylbenzenesulfonamide] | 100 to 1000 | < 100 | < 100 | 
11 | CCOC(=O)Nc1nc(Nc2ccccc2)nc(-c2ccccc2)n1 [Compound 181, ethyl 4-phenyl-6-(phenylamino)-1,3,5-triazin-2-ylcarbamate] | 100 to 1000 | < 100 | < 100 | 
12 | CC(C)(C)C(=O)Nc1nc(Nc2ccccc2)nc(-c2ccccc2)n1 [Compound 183, N-(4-phenyl-6-(phenylamino)-1,3,5-triazin-2-yl)pivalamide] | 100 to 1000 | < 100 | < 100 | 
13 | CC(C)Nc1nc(Nc2ccncc2)nc(-c2cccc(F)c2)n1 [Compound 184, 6-(3-fluorophenyl)-N^2-isopropyl-N^4-(pyridin-4-yl)-1,3,5-triazine-2,4-diamine] | 1000 to 10000 | < 100 | 100 to 1000 | 
14 | CC(C)Nc1nc(Nc2ccncc2)nc(-c2cccc(Cl)c2)n1 [Compound 185, 6-(3-chlorophenyl)-N^2-isopropyl-N^4-(pyridin-4-yl)-1,3,5-triazine-2,4-diamine] | 100 to 1000 | < 100 | 100 to 1000 | 
15 | CCC(C)Nc1nc(Nc2ccncc2)nc(-c2ccccc2)n1 (stereo not drawn) [Compound 186, N^2-sec-butyl-6-phenyl-N^4-(pyridin-4-yl)-1,3,5-triazine-2,4-diamine] | 100 to 1000 | < 100 | < 100 | 
16 | c1ccc(-c2nc(Nc3ccncc3)nc(NC3CCCC3)n2)cc1 [Compound 187] | 100 to 1000 | < 100 | < 100 | 
17 | c1ccc(-c2nc(Nc3ccncc3)nc(NC3CCC3)n2)cc1 [Compound 188, N^2-cyclobutyl-6-phenyl-N^4-(pyridin-4-yl)-1,3,5-triazine-2,4-diamine] | 100 to 1000 | < 100 | < 100 | 
18 | CC(C)(C)Nc1nc(Nc2ccncc2)nc(-c2ccccc2)n1 [Compound 189, N^2-tert-butyl-6-phenyl-N^4-(pyridin-4-yl)-1,3,5-triazine-2,4-diamine] | 1000 to 10000 | < 100 | 100 to 1000 | 
19 | CC(C)CNc1nc(Nc2ccncc2)nc(-c2ccccc2)n1 [Compound 190, N^2-isobutyl-6-phenyl-N^4-(pyridin-4-yl)-1,3,5-triazine-2,4-diamine] | 100 to 1000 | < 100 | < 100 | 
20 | CC(C)(C)CNc1nc(Nc2ccncc2)nc(-c2ccccc2)n1 [Compound 191, N^2-neopentyl-6-phenyl-N^4-(pyridin-4-yl)-1,3,5-triazine-2,4-diamine] | 100 to 1000 | < 100 | < 100 | 
21 | CC(C)Nc1nc(Nc2cncc(F)c2)nc(-c2ccccc2)n1 [Compound 193, N^2-(5-fluoropyridin-3-yl)-N^4-isopropyl-6-phenyl-1,3,5-triazine-2,4-diamine] | 100 to 1000 | < 100 | < 100 | 
22 | COCc1cccc(Nc2nc(NC(C)C)nc(-c3ccccc3)n2)c1 [Compound 195, N^2-isopropyl-N^4-(3-(methoxymethyl)phenyl)-6-phenyl-1,3,5-triazine-2,4-diamine] | 100 to 1000 | < 100 | < 100 | 
23 | CC(C)Nc1nc(Nc2ccc(F)nc2)nc(-c2ccccc2)n1 [Compound 196, N^2-(6-fluoropyridin-3-yl)-N^4-isopropyl-6-phenyl-1,3,5-triazine-2,4-diamine] | 100 to 1000 | < 100 | < 100 | 

Continued, in another order:

Row | IC50 (IDH2 R172K) [nM] | IC50 (IDH2 R140Q) [nM] | IC50 [1] [nM] | SMILES | Cell R140Q [1]
24 | < 100 | < 100 | < 100 | CC(C)Nc1nc(Nc2cccc(Cl)c2)nc(-c2ccccc2)n1 [Compound 149] | 
25 | 100 to 1000 | 100 to 1000 | 100 to 1000 | CC(C)Nc1nc(Nc2ccccc2)nc(-c2cccc(S(C)(=O)=O)c2)n1 [Compound 151] | 
26 | 100 to 1000 | < 100 | 100 to 1000 | CC(C)Nc1nc(Nc2ccccc2)nc(-c2cccc(Cl)c2)n1 [Compound 158] | 
27 | 100 to 1000 | < 100 | 100 to 1000 | CC(C)OC(=O)Nc1nc(Nc2ccccc2)nc(-c2ccccc2)n1 [Compound 160, isopropyl 4-phenyl-6-(phenylamino)-1,3,5-triazin-2-ylcarbamate] | 
28 | 100 to 1000 | < 100 | < 100 | CC(C)C(=O)Nc1nc(Nc2ccccc2)nc(-c2ccccc2)n1 [Compound 167] | 
29 | 100 to 1000 | < 100 | < 100 | c1ccc(Nc2nc(NC3CCOCC3)nc(-c3ccccc3)n2)cc1 [Compound 168] | 
30 | 100 to 1000 | < 100 | 100 to 1000 | CC(C)Nc1nc(Nc2ccon2)nc(-c2ccccc2)n1 [Compound 169] | 
31 | 100 to 1000 | 100 to 1000 | 1000 to 10000 | CC(C)Nc1nc(NC(=O)Cc2ccccc2)nc(-c2ccccc2)n1 [Compound 170] | 
32 | 100 to 1000 | < 100 | 100 to 1000 | O=C(Cc1ccccc1)Nc1nc(Nc2ccccc2)nc(-c2ccccc2)n1 [Compound 172] | 
33 | < 100 | < 100 | < 100 | Clc1cccc(Nc2nc(NC3CCOCC3)nc(-c3ccccc3)n2)c1 [Compound 173] | 
34 | 100 to 1000 | < 100 | < 100 | c1ccc(Nc2nc(NC3CCOC3)nc(-c3ccccc3)n2)cc1 (stereo not drawn) [Compound 174, N^2,6-diphenyl-N^4-(tetrahydrofuran-3-yl)-1,3,5-triazine-2,4-diamine] | 
35 | < 100 | < 100 | < 100 | CC(C)Nc1nc(Nc2cccc(F)c2)nc(-c2ccccc2)n1 [Compound 178, N-(3-Fluoro-phenyl)-N′-isopropyl-6-phenyl-[1,3,5]triazine-2,4-diamine] | 
36 | < 100 | < 100 | < 100 | CC(C)COC(=O)Nc1nc(Nc2ccccc2)nc(-c2ccccc2)n1 [Compound 179, Isobutyl 4-phenyl-6-(phenyl-amino)-1,3,5-triazin-2-ylcarbamate] | 
37 | < 100 | < 100 | < 100 | CC(C)Nc1nc(Nc2cncc(Cl)c2)nc(-c2ccccc2)n1 [Compound 194, N^2-(5-chloropyridin-3-yl)-N^4-isopropyl-6-phenyl-1,3,5-triazine-2,4-diamine] | 
